# Laboratory results from patent US9133181B2, “Substituted 6-(4-hydroxy-phenyl)-1H-pyrazolo[3,4-b]pyridine derivatives as kinase inhibitors” (SANOFI, priority 2012, dated 2015).
# Molecular target: T1, human full-length recombinant PKC βII (Homo sapiens, UniProt P05771)
# T1 construct: Active human full-length recombinant PKC βII; purchased Invitrogen GmbH, Darmstadt, Germany
# Assay: Determination of PKC βII inhibition (Caliper mobility shift kinase assay)
# Type: biochemical
# Conditions: final compound concentration 1.14 μM (±0.15 μM); 60 min incubation at 32° C.
# How it was run: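 Compound was tested at a final 1.14 µM (±0.15 µM), with % inhibition derived from the product/(substrate+product) peak ratio on a Caliper mobility-shift read-out. Full-length PKC βII was activated by CaCl2, PS and DAG in pH 7.4 Hepes/MgCl2. Peptide and ATP were at 3 µM and 120 µM in the added mix. Incubation was 60 min at 32 °C.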
# T1 sequence (P05771 1-673 isoform P05771-2): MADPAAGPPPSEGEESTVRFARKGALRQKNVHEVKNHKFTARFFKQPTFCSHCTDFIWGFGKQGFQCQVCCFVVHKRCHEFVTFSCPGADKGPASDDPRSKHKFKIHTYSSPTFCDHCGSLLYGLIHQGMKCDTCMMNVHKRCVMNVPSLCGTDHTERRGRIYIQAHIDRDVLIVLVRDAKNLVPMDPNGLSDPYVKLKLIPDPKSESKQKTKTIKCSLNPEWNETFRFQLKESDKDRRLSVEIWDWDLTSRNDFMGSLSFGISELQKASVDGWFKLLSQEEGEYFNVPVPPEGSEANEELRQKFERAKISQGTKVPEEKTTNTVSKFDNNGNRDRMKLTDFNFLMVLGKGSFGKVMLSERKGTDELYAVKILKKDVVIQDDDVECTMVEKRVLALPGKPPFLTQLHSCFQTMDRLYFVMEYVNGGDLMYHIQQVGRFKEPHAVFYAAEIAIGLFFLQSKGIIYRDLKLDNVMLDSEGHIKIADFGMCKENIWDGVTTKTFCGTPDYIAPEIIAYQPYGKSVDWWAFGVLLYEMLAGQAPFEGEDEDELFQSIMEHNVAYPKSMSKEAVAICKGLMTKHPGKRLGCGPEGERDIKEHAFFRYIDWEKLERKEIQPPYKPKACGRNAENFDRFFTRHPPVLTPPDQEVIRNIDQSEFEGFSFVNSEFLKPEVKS
SMILES,inhibition at 1.14 µM,% Inhibition
"COCC(=O)NC1(C)CCCN(Cc2cc(-c3ccc(O)cc3F)nc3[nH]nc(C)c23)C1 (centres unmarked) [Example 81, N-{1-[6-(2-Fluoro-4-hydroxy-phenyl)-3-methyl-1H-pyrazolo[3,4-b]pyridin-4-ylmethyl]-3-methyl-piperidin-3-yl}-2-methoxy-acetamide]",97%,–
"COCC(=O)N1CC(C)N(Cc2cc(-c3ccc(O)cc3)nc3[nH]nc(C)c23)CC12CCCC2 (centres unmarked) [Example 82, 1-{9-[6-(4-Hydroxy-phenyl)-3-methyl-1H-pyrazolo[3,4-b]pyridin-4-ylmethyl]-8-methyl-6,9-diaza-spiro[4.5]dec-6-yl}-2-methoxy-ethanone]",85%,–
"CNCCN1CC(C)(C)N(Cc2cc(-c3ccc(O)cc3)nc3[nH]nc(C)c23)CC1(C)C [Example 85, 4-{3-Methyl-4-[2,2,5,5-tetramethyl-4-(2-methylamino-ethyl)-piperazin-1-ylmethyl]-1H-pyrazolo[3,4-b]pyridin-6-yl}-phenol]",101%,–
"COC(=O)CN1CC(C)(C)N(Cc2cc(-c3ccc(O)cc3)nc3[nH]nc(C)c23)CC1(C)C [Example 86, {4-[6-(4-Hydroxy-phenyl)-3-methyl-1H-pyrazolo[3,4-b]pyridin-4-ylmethyl]-2,2,5,5-tetramethyl-piperazin-1-yl}-acetic acid methyl ester]",86%,–
"COC(=O)CNC(=O)N1CC(C)(C)N(Cc2cc(-c3ccc(O)cc3)nc3[nH]nc(C)c23)CC1(C)C [Example 87, ({4-[6-(4-Hyd roxy-phenyl)-3-methyl-1H-pyrazolo[3,4-b]pyridin-4-ylmethyl]-2,2,5,5-tetramethyl-piperazine-1-carbonyl}-amino)-acetic acid methyl ester]",92%,–
"Cc1n[nH]c2nc(-c3ccc(O)cc3)cc(CN3CCN[C@H](CC(F)(F)F)C3)c12 [Example 91, 4-{3-Methyl-4-[(R)-3-(2,2,2-trifluoro-ethyl)-piperazin-1-ylmethyl]-1H-pyrazolo[3,4-b]pyridin-6-yl}-phenol]",81%,–
"Cc1n[nH]c2nc(-c3ccc(O)cc3)cc(CN3CCNC[C@H]3CC(F)(F)F)c12 [Example 92, 4-{3-Methyl-4-[(R)-2-(2,2,2-trifluoro-ethyl)-piperazin-1-ylmethyl]-1H-pyrazolo[3,4-b]pyridin-6-yl}-phenol]",99%,–
"Cc1n[nH]c2nc(-c3ccc(O)cc3)cc(CN(C)C3CCNC3)c12 (centres unmarked) [Example 94, 4-{3-Methyl-4-[(methyl-pyrrolidin-3-yl-amino)-methyl]-1H-pyrazolo[3,4-b]pyridin-6-yl}-phenol]",92%,–
"Oc1ccc(-c2cc(CN3CCNCC3)c3c(C4CC4)n[nH]c3n2)cc1 [Example 95, 4-(3-Cyclopropyl-4-piperazin-1-ylmethyl-1H-pyrazolo[3,4-b]pyridin-6-yl)-phenol]",53%,–
"CCc1n[nH]c2nc(-c3ccc(O)cc3)cc(CN3CCNCC3)c12 [Example 96, 4-(3-Ethyl-4-piperazin-1-ylmethyl-1H-pyrazolo[3,4-b]pyridin-6-yl)-phenol]",74%,–
"Cc1n[nH]c2nc(-c3ccc(O)cc3F)cc(CN3C[C@H](c4ccccc4)NC[C@H]3C)c12 [Example 100, 3-Fluoro-4-[3-methyl-4-((2R,5S)-2-methyl-5-phenyl-piperazin-1-ylmethyl)-1H-pyrazolo[3,4-b]pyridin-6-yl]-phenol]",86%,–
"Cc1n[nH]c2nc(-c3ccc(O)cc3F)cc(CN3CCNC[C@@H]3c3ccc(C(C)C)cc3)c12 [Example 101, 3-Fluoro-4-{4-[(S)-2-(4-isopropyl-phenyl)-piperazin-1-ylmethyl]-3-methyl-1H-pyrazolo[3,4-b]pyridin-6-yl}-phenol]",52%,–
"Cc1n[nH]c2nc(-c3ccc(O)cc3F)cc(CN3CCNC[C@@H]3c3ccc(C(F)(F)F)cc3)c12 [Example 103, 3-Fluoro-4-{3-methyl-4-[(S)-2-(4-trifluoromethyl-phenyl)-piperazin-1-ylmethyl]-1H-pyrazolo[3,4-b]pyridin-6-yl}-phenol]",53%,–
"Cc1n[nH]c2nc(-c3ccc(O)cc3F)cc(CN3CCNC[C@H]3c3ccc(C(F)(F)F)cc3)c12 [Example 104, 3-Fluoro-4-{3-methyl-4-[(R)-2-(4-trifluoromethyl-phenyl)-piperazin-1-ylmethyl]-1H-pyrazolo[3,4-b]pyridin-6-yl}-phenol]",83%,–
"Cc1n[nH]c2nc(-c3ccc(O)cc3F)cc(CN3CCNC[C@H]3c3ccc(F)cc3)c12 [Example 106, 3-Fluoro-4-{4-[(R)-2-(4-fluoro-phenyl)-piperazin-1-ylmethyl]-3-methyl-1H-pyrazolo[3,4-b]pyridin-6-yl}-phenol]",104%,–
"Cc1n[nH]c2nc(-c3ccc(O)cc3F)cc(CN3CCNC[C@@H]3C(F)(F)F)c12 [Example 107, 3-Fluoro-4-[3-methyl-4-((R)-2-trifluoromethyl-piperazin-1-ylmethyl)-1H-pyrazolo[3,4-b]pyridin-6-yl]-phenol]",101%,–
"Cc1n[nH]c2nc(-c3ccc(O)cc3F)cc(CN3CCNC[C@H]3C(F)(F)F)c12 [Example 108, 3-Fluoro-4-[3-methyl-4-((S)-2-trifluoromethyl-piperazin-1-ylmethyl)-1H-pyrazolo[3,4-b]pyridin-6-yl]-phenol]",102%,–
"Cc1n[nH]c2nc(-c3ccc(O)cc3F)cc(CN3CCNC[C@@H]3c3ccccc3)c12 [Example 109, 3-Fluoro-4-[3-methyl-4-((S)-2-phenyl-piperazin-1-ylmethyl)-1H-pyrazolo[3,4-b]pyridin-6-yl]-phenol]",91%,–

# Further lines, results first:
inhibition at 1.14 µM,% Inhibition,SMILES
69%,–,"Cc1n[nH]c2nc(-c3ccc(O)cc3)cc(CN3CC(C)(C)N(CCC(F)(F)F)CC3(C)C)c12 [Example 83, 4-{3-Methyl-4-[2,2,5,5-tetramethyl-4-(3,3,3-trifluoro-propyl)-piperazin-1-ylmethyl]-1H-pyrazolo[3,4-b]pyridin-6-yl}-phenol]"
98%,–,"Cc1n[nH]c2nc(-c3ccc(O)cc3)cc(CN3CC(C)(C)N(C)CC3(C)C)c12 [Example 84, 4-[3-Methyl-4-(2,2,4,5,5-pentamethyl-piperazin-1-ylmethyl)-1H-pyrazolo[3,4-b]pyridin-6-yl]-phenol]"
89%,–,"CCNC(=O)N1CC(C)(C)N(Cc2cc(-c3ccc(O)cc3)nc3[nH]nc(C)c23)CC1(C)C [Example 88, 4-[6-(4-Hydroxy-phenyl)-3-methyl-1H-pyrazolo[3,4-b]pyridin-4-ylmethyl]-2,2,5,5-tetramethyl-piperazine-1-carboxylic acid ethylamide]"
76%,–,"CCNC(=O)N1CCCN(Cc2cc(-c3ccc(O)cc3F)nc3[nH]nc(C)c23)CC1C (centres unmarked) [Example 89, 4-[6-(2-Fluoro-4-hydroxy-phenyl)-3-methyl-1H-pyrazolo[3,4-b]pyridin-4-ylmethyl]-2-methyl-[1,4]diazepane-1-carboxylic acid ethylamide]"
99%,–,"COCC(=O)N1CC(C)(C)N(Cc2cc(-c3ccc(O)cc3)nc3[nH]nc(C)c23)CC1(C)C [Example 90, 1-{4-[6-(4-Hydroxy-phenyl)-3-methyl-1H-pyrazolo[3,4-b]pyridin-4-ylmethyl]-2,2,5,5-tetramethyl-piperazin-1-yl}-2-methoxy-ethanone]"
81%,–,"CNC1CCN(Cc2cc(-c3ccc(O)cc3)nc3[nH]nc(C)c23)C1 (centres unmarked) [Example 93, 4-[3-Methyl-4-(3-methylamino-pyrrolidin-1-ylmethyl)-1H-pyrazolo[3,4-b]pyridin-6-yl]-phenol]"
96%,–,"Cc1n[nH]c2nc(-c3ccc(O)cc3F)cc(C(C)N3CCNCC3)c12 (centres unmarked) [Example 97, 3-Fluoro-4-[3-methyl-4-(1-piperazin-1-yl-ethyl)-1H-pyrazolo[3,4-b]pyridin-6-yl]-phenol]"
87%,–,"Cc1n[nH]c2nc(-c3ccc(O)cc3F)cc(C(C)N3C[C@@H](C)N[C@@H](C)C3)c12 (stereo partly drawn) [Example 98, 4-{4-[1-((3S,5R)-3,5-Dimethyl-piperazin-1-yl)-ethyl]-3-methyl-1H-pyrazolo[3,4-b]pyridin-6-yl}-3-fluoro-phenol]"
92%,–,"Cc1n[nH]c2nc(-c3ccc(O)cc3F)cc(CN3C[C@@H](c4ccccc4)NC[C@@H]3C)c12 [Example 99, 3-Fluoro-4-[3-methyl-4-((2S,5R)-2-methyl-5-phenyl-piperazin-1-ylmethyl)-1H-pyrazolo[3,4-b]pyridin-6-yl]-phenol]"
85%,–,"Cc1n[nH]c2nc(-c3ccc(O)cc3F)cc(CN3CCNC[C@H]3c3ccc(C(C)C)cc3)c12 [Example 102, 3-Fluoro-4-{4-[(R)-2-(4-isopropyl-phenyl)-piperazin-1-ylmethyl]-3-methyl-1H-pyrazolo[3,4-b]pyridin-6-yl}-phenol]"
100%,–,"Cc1n[nH]c2nc(-c3ccc(O)cc3F)cc(CN3CCNC[C@@H]3c3ccc(F)cc3)c12 [Example 105, 3-Fluoro-4-{4-[(S)-2-(4-fluoro-phenyl)-piperazin-1-ylmethyl]-3-methyl-1H-pyrazolo[3,4-b]pyridin-6-yl}-phenol]"
42%,–,"Cc1n[nH]c2nc(-c3ccc(O)cc3F)cc(CN3CCNC[C@H]3c3ccccc3)c12 [Example 110, 3-Fluoro-4-[3-methyl-4-((R)-2-phenyl-piperazin-1-ylmethyl)-1H-pyrazolo[3,4-b]pyridin-6-yl]-phenol]"
–,88%,"Cc1n[nH]c2nc(-c3ccc(O)cc3)cc(CN3C[C@@H](C)NC[C@@H]3c3ccccc3)c12 [Example 111, 4-[3-Methyl-4-((2S,5R)-5-methyl-2-phenyl-piperazin-1-ylmethyl)-1H-pyrazolo[3,4-b]pyridin-6-yl]-phenol]"
85%,–,"Cc1n[nH]c2nc(-c3ccc(O)cc3)cc(CN3C[C@H](C)NC[C@H]3c3ccccc3)c12 [Example 112, 4-[3-Methyl-4-((2R,5S)-5-methyl-2-phenyl-piperazin-1-ylmethyl)-1H-pyrazolo[3,4-b]pyridin-6-yl]-phenol]"
